Measurements as given in patent US9994644B2, “mAB 2 anti-Met antibody” (Agency for Science, Technology and Research, priority 2013, dated 2018).

B1: MetMab: monovalent chimeric antibody targeted against c-Met (antibody, chains of the INN, looked up, V domains shown)
VH: EVQLVESGGGLVQPGGSLRLSCAASGYTFTSYWLHWVRQAPGKGLEWVGMIDPSNSDTRFNPNFKDRFTISADTSKNTAYLQMNSLRAEDTAVYYCATYRSYVTPLDYWGQGTLVTVSS
VL: DIQMTQSPSSLSASVGDRVTITCKSSQSLLYTSSQKNYLAWYQQKPGKAPKLLIYWASTRESGVPSRFSGSGSGTDFTLTISSLQPEDFATYYCQQYYAYPWTFGQGTKVEIK
modifications: one-armed monovalent
notes: monovalent chimeric antibody targeted against c-Met

Experiments:
c-Met [1] = target: c-Met (Homo sapiens, UniProt P08581); conditions: background statement; cited from earlier work
Sequence of c-Met (Homo sapiens, UniProt P08581) (P08581 25-307): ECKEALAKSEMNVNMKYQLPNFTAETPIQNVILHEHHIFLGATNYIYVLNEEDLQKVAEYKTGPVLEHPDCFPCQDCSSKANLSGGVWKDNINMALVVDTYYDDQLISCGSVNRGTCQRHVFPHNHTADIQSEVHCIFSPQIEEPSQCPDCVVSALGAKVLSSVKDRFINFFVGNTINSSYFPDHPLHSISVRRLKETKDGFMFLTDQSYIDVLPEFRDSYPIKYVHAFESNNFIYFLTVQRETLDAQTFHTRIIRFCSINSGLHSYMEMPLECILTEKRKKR
Sequence of c-Met (Homo sapiens, UniProt P08581) (P08581 308-1390): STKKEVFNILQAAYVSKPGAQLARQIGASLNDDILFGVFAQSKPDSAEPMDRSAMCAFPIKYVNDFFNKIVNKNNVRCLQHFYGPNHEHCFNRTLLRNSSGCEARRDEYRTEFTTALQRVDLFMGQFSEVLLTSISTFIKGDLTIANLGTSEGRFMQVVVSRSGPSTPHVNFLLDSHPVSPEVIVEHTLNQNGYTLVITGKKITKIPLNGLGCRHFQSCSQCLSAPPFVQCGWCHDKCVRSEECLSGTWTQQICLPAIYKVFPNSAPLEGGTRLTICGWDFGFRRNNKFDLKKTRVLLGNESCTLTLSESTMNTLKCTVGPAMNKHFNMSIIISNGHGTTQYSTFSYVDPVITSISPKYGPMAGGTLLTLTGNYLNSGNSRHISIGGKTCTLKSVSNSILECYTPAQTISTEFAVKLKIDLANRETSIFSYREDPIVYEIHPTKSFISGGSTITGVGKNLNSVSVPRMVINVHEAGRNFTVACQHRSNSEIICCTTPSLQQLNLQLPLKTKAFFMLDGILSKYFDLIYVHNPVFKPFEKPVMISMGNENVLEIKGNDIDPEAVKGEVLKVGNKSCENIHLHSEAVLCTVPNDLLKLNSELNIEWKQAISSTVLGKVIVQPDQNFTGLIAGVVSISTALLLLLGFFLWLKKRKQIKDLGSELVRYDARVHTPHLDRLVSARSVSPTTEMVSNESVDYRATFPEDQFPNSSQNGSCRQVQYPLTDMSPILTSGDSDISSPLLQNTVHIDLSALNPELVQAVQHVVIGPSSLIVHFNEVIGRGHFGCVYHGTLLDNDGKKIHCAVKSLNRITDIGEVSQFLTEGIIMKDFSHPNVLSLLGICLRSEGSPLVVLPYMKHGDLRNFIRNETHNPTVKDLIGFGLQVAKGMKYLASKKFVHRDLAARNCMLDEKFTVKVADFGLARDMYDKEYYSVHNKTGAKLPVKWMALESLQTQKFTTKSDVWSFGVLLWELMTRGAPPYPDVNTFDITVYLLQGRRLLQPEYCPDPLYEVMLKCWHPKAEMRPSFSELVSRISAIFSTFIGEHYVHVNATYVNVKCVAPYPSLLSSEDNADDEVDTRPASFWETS

HaCaT cells = experiment: Cell scatter assay; assay type: cell-based; conditions: 10 ng/mL HGF, controls
Description: Cell scattering is one of the biological hallmarks of c-Met activation. Agonist bivalent monoclonal antibodies targeting c-Met would activate c-Met and cause cells to become motile and disperse. Here, we examine the effects of purified anti-α-chain c-Met monoclonal antibodies on cell scatter. HaCaT cells were seeded at low density and allowed to grow until colonies formed. Cells were serum-starved for 24 hrs before incubating with 1 μg/mL monoclonal antibodies for 24 hrs. Cells were then fixed and stained with crystal violet. As a control, cell scatter of HaCaT cells was induced with 10 ng/mL of HGF (FIG. 5). […] Anti-HGF antibody and SU11274 were used as controls. SU11274 is a small molecule inhibitor of c-Met.
100-200 HaCaT cells were seeded in 24-well plates and allowed to grow until small colonies were formed (approximately 7 days). Cells were serum-starved for 24 hrs. Cells were incubated with purified monoclonal antibodies (1 μg/mL) for 24 hrs before rinsing twice in cold PBS and fixing in ice-cold methanol. Cells were then stained in 1% crystal-violet (Sigma-Aldrich) solution. Cell staining was observed using Zeiss Axiovert 25 inverted microscope and pictures were taken using a Canon EOS 1000 D camera.

[2] = system: caspase activation in SNU-5 cells; experiment: Caspase-Glo 3/7 caspase activation assay; assay type: cell-based, human; conditions: SNU-5, 72 hrs; mAb 10 μg/mL, SU11274 5 μM
Description: (§1) In order to determine if these antibodies have any physiological effects on tumour cells, 10 μg/mL of mAb was added to SNU-5 cells. […] This indicates SU11274 mode of mechanism is by activation of caspase which in turn result in apoptosis of SNU-5 tumour cells.
(§2) CellTiter-Glo® luminescent cell viability assay and Caspase-Glo® 3/7 Assay (Promega, U.S.A.) were used to determine cell viability and caspase activation respectively. SNU-5 cells (1×10^5 cells) were seeded in each 96-well and treated for 72 hrs before analysis. Cell viability and caspase activation were performed according to manufacturer's protocol. Luminescence was read using the EnVision plate reader (PerkinElmer, U.S.A.).

SNU-5 cells = experiment: CellTiter-Glo luminescent cell viability assay; assay type: cell-based, human; conditions: SNU-5, 72 hrs; mAb 10 μg/mL, SU11274 5 μM
Description: as §1, §2

c-Met [3] = conditions: background statement; cited from earlier work
mAb 2 = experiment: Alanine scan ELISA and mAb 2 titration against peptides; assay type: binding, murine; conditions: for mAb 2 binding to alanine-substituted peptide: 0.05 μg/mL mAb 2, 1 mM DTT; for Increase mAb 2 binding in ascending order: titration of purified mAb 2 against peptides, 1 = least binding
Description: Variations of peptides O28 and O29, where each amino acid residue was sequentially substituted for an alanine residue, were synthesised. Streptavidin-coated plates (Pierce/Thermo Scientific, #15520) were blocked with 3% BSA/PBS at room temperature. The peptides were dissolved in DMSO and stored according to manufacturer's recommendation. Streptavidin-coated plates were coated with each peptide (5 μg/mL) overnight at room temperature. Wells were washed before hybridoma supernatant or purified monoclonal antibody was added to the each well. HRP-conjugated anti-mouse antibody was added to detect bound monoclonal antibodies. ELISA substrate (Bio-Rad #172-1067) solution was prepared freshly according to the manufacturer's instructions and added to the wells. Colour change was monitored by eye and the reaction was stopped by adding 100 mM sulphuric acid. Absorbance was read at 450 nm in a microplate reader (SPECTRAmax PLUS^384, Molecular Device, U.S.A.). The crystal structure of c-Met extracellular domain, accession number 1 SHY, was obtained from Protein Data Base (PDB). Computer imaging of the epitopes were analysed by PyMol (DeLano Scientific LLC, U.S.A.) software.
To identify residues within peptides O28 and O29 that are crucial for mAb 2-Met interaction, an alanine scan was performed. Variations of peptide O28 and O29, where each amino acid residue was sequentially substituted for an alanine residue, were synthesised (Table 3). Peptides P1 to P16 (with the SEQ II) NO: […]) and P17 to P31. (with the SEQ ID NO: 40 to 56) were derived from the original peptide O28 and O29 respectively. Using the same ELISA-based assay described above, synthesised peptides were added to streptavidin-coated wells and purified mAb 2 was added to each peptide containing well. mAb 2 binding was determined by absorbance reading at […]. […] Peptide O27, peptide O1 and no peptide were used as negative controls.
The substituted amino acid residues in these peptides are thus involved in mAb 2 epitope. […] This is supported by the loss of mAb 2 binding due to the substitution of proline by alanine in peptides P14, P25 and P10. To determine which residues play a more crucial role in mAb 2 binding, mAb 2 was titrated against the peptides (FIG. 12B). […] These residues are not consecutive residues.

Molecule	mAb 2 binding to alanine-substituted peptide (mAb 2)	Increase mAb 2 binding in ascending order (mAb 2)	other results
COc1cc2c(Oc3ccc(-c4cnc(Cc5ccccc5)n(C)c4=O)cc3F)ccnc2cc1OCCCN1CCOCC1 [AM7]			inhibition of c-Met activation (c-Met [1]): extremely successful
Cc1[nH]c(/C=C2\C(=O)Nc3ccc(S(=O)(=O)Cc4c(Cl)cccc4Cl)cc32)c(C)c1C(=O)N1CCC[C@@H]1CN1CCCC1 [PHA-665752]			inhibition of c-Met activation (c-Met [1]): extremely successful
Cc1[nH]c(/C=C2\C(=O)Nc3ccc(S(=O)(=O)N(C)c4cccc(Cl)c4)cc32)c(C)c1C(=O)N1CCN(C)CC1 [SU11274]			HGF-induced cell scatter (HaCaT cells): remained circular; caspase activation [2]: high caspase activation; cell viability (SNU-5 cells): significant reduction; inhibition of c-Met activation (c-Met [1]): extremely successful; activity against specific c-Met mutations (c-Met [3]): ineffective
AIEEPSQCPDCVVSA [P17, alanine-substituted variant of peptide O29]	failed to bind	5	
AIFSPQIEEPSQCPD [P1, alanine-substituted variant of peptide O28]	failed to bind		
CIFSPQAEEPSQCPD [P7, alanine-substituted variant of peptide O28]	failed to bind	8	
CIFSPQIAEPSQCPD [P8, alanine-substituted variant of peptide O28]	failed to bind		
CIFSPQIEAPSQCPD [P9, alanine-substituted variant of peptide O28]	failed to bind	4	
CIFSPQIEEASQCPD [P10, alanine-substituted variant of peptide O28]	failed to bind	7	
CIFSPQIEEPSQCAD [P14, alanine-substituted variant of peptide O28]	failed to bind		
CIFSPQIEEPSQCPA [P15, alanine-substituted variant of peptide O28]	failed to bind	10	
CIFSPQIEEPSQCPD [O28, pepscan peptide of human c-Met α-chain]		11	
QIAEPSQCPDCVVSA [P19, alanine-substituted variant of peptide O29]	failed to bind	6	
QIEAPSQCPDCVVSA [P20, alanine-substituted variant of peptide O29]	failed to bind	9	
QIEEPSQCADCVVSA [P25, alanine-substituted variant of peptide O29]	failed to bind	3	
QIEEPSQCPDCVVSA [O29, pepscan peptide of human c-Met α-chain]		11	
B1			agonist/antagonist activity towards c-Met (c-Met [1]): antagonist
